# Where a SMILES comes first, the peptide text is derived from it. [ ]: non-standard residue; d: D form. ξ: configuration not given here. ξD = NC(CC(=O)O)C(=O)O
# Assays:
# [1] = system: human coronary vascular smooth muscle cells (hcVSMC); test: Inhibition of intracellular cholesterol accumulation induced by SMase (CE/FC ratio); format: cell-based; conditions: hcVSMC exposed 2 hours to SMase-LDL treated overnight with peptide 10 μM; CE and FC by thin layer chromatography and densitometry, Equation II
# Description: Thus, the inhibitory effect of the novel compounds on the intracellular cholesterol accumulation has been analysed in terms of decrease in the ratio of intracellular CE and free cholesterol FC content of hcVSMC exposed to LDL and SMase-LDL.
# All cells used were from a unique batch in order to prevent variability from cell origin. Cell quiescence was induced by maintaining the cell culture for 24 hours in a medium. Serum-deprived cells between passages 4 and 8 were used for experiments. VSMCs at these passages appeared as a relatively homogeneous population, showing a hill-and-valley confluence pattern. Cell monolayers were grown in vascular cell basal medium supplemented with vascular smooth muscle growth kit components. Quiescent cells were 2-hours exposed to LDL treated with SMase (in absence or presence of peptides) overnight at a concentration of 10 μM previously checked its aggregation by a turbidimetry test. Cells were then either collected for lipid extraction or processed for confocal microscopy analysis.
# Following the lipoprotein incubation period, hcVSMC were exhaustively washed (twice with PBS, twice with PBS supplemented with 1% BSA, and once with PBS supplemented with both 1% BSA and 100 U/mL heparin), before they were harvested into 1 mL of 0.15 M NaOH. Lipids were extracted using the Bligh and Dyer method. The lipid extract was redissolved in dichloromethane, applied to silica gel plates, and separated by thin layer chromatography. A mixture of cholesterol and cholesterol palmitate, were also run as standards. Heptane or a solvent combination of heptane/diethylether/acetic acid (74:21:4, v/v/v) were used as chromatographic mobile phase. After lipid separation, the plates were dried and stained as previously reported. Finally, the spots corresponding to cholesteryl ester (CE) and free cholesterol (FC) were quantitated by densitometry.
# The efficacy of each novel compound to decrease the ratio of intracellular cholesteryl esters (CE) and free cholesterol (FC) content of hcVSMC exposed to LDL and SMase-LDL was calculated according to Equation II.
# a corresponds to the CE/FC ratio in hcVSMC exposed to SMase-LDL and in the presence of the test compound.
# b corresponds to the CE/FC ratio in hcVSMC exposed to nLDL in the absence of the test compound.
# c corresponds to the CE/FC ratio in hcVSMC exposed to SMase-LDL in the absence of the test compound.
# SMase-treated LDL = target: T1, SMase-treated LDL (Homo sapiens, UniProt P04114); test: Anti-LDL aggregation assay, turbidimetry, aggregation induced by sphingomyelinase (SMase); format: biochemical; conditions: peptide 10 μM (compound/ApoB-100 4.7/1), human LDL 1.44 mg/mL, 40 U/L Bacillus cereus SMase, 18 hours, 37° C., absorbance at 405 nm, Equation I
# T1 construct: from tissue; host or cells: pooled normolipemic human plasma
# Description: (§1) The efficacy of the novel compounds to inhibit the aggregation of LDL has been tested in two parallel turbidimetric assays differing from each other only in the enzyme used to induce LDL aggregation, namely sphingomyelinase (SMase) and phospholipase A2 (PLA2), respectively.
# (§2) Human LDL (d1.019-d1.063 g/mL) were obtained from pooled normolipemic human plasma by sequential ultracentrifugation in a KBr density gradient. Briefly, VLDL were first discarded after spinning plasma at 36.000 rpm for 18 h at 4° C., VLDL-free plasma was layered with 1.063 g/mL KBr solution and centrifuged at 36,000 rpm for 18 h at 4° C. LDL were dialyzed against 0.02 M Tris, 0.15 M NaCl, 1 mM EDTA, pH 7.5 for 18 hours, and then against normal saline for 2 hours. Finally, isolated LDL were filter-sterilized. Protein concentration was determined using a colorimetric assay.
# (§3) Human LDL particles (1.44 mg/mL) were incubated with 40 U/L of Bacillus cereus SMase or with 50 μg/L of type II secretory PLA2 from honey bee venom in 20 mM Tris buffer (pH 7.0) containing 150 mM NaCl, 2 mM CaCl2), and MgCl2 at 37° C. LDL incubation with SMase and PLA2 was performed at peptide concentration of 10 μM (ratio compound/ApoB-100: 4.7/1) for 18 hours. LDL lipolysis was stopped by addition of EDTA (final concentration 10 mM).
# (§4) The efficiency of each novel compound to inhibit LDL aggregation induced by SMase and PLA2 was estimated by turbidimetry measuring the absorbance at a wavelength of 405 nm. Thus, the inhibitory activity was calculated according to Equation I.
# (§5) a corresponds to the absorbance value in the presence of nLDL particles, LDL aggregating enzyme (i.e., SMase or PLA2) and test compound;
# (§6) b corresponds to the absorbance value in the presence of only nLDL particles;
# (§7) c corresponds to the absorbance value in the presence of nLDL particles and LDL aggregating enzyme (i.e., SMase or PLA2);
# PLA2-treated LDL = target: T2, PLA2-treated LDL (Homo sapiens, UniProt P04114); test: Anti-LDL aggregation assay, turbidimetry, aggregation induced by phospholipase A2 (PLA2); format: biochemical; conditions: 18 h, read-out: Inhibition of LDL aggregation, PLA2-treated LDL
# T2 construct: from tissue; host or cells: pooled normolipemic human plasma
# Description: as §1, §2, §3, §4, §5, §6, §7
# T2 sequence (P04114 28-4563): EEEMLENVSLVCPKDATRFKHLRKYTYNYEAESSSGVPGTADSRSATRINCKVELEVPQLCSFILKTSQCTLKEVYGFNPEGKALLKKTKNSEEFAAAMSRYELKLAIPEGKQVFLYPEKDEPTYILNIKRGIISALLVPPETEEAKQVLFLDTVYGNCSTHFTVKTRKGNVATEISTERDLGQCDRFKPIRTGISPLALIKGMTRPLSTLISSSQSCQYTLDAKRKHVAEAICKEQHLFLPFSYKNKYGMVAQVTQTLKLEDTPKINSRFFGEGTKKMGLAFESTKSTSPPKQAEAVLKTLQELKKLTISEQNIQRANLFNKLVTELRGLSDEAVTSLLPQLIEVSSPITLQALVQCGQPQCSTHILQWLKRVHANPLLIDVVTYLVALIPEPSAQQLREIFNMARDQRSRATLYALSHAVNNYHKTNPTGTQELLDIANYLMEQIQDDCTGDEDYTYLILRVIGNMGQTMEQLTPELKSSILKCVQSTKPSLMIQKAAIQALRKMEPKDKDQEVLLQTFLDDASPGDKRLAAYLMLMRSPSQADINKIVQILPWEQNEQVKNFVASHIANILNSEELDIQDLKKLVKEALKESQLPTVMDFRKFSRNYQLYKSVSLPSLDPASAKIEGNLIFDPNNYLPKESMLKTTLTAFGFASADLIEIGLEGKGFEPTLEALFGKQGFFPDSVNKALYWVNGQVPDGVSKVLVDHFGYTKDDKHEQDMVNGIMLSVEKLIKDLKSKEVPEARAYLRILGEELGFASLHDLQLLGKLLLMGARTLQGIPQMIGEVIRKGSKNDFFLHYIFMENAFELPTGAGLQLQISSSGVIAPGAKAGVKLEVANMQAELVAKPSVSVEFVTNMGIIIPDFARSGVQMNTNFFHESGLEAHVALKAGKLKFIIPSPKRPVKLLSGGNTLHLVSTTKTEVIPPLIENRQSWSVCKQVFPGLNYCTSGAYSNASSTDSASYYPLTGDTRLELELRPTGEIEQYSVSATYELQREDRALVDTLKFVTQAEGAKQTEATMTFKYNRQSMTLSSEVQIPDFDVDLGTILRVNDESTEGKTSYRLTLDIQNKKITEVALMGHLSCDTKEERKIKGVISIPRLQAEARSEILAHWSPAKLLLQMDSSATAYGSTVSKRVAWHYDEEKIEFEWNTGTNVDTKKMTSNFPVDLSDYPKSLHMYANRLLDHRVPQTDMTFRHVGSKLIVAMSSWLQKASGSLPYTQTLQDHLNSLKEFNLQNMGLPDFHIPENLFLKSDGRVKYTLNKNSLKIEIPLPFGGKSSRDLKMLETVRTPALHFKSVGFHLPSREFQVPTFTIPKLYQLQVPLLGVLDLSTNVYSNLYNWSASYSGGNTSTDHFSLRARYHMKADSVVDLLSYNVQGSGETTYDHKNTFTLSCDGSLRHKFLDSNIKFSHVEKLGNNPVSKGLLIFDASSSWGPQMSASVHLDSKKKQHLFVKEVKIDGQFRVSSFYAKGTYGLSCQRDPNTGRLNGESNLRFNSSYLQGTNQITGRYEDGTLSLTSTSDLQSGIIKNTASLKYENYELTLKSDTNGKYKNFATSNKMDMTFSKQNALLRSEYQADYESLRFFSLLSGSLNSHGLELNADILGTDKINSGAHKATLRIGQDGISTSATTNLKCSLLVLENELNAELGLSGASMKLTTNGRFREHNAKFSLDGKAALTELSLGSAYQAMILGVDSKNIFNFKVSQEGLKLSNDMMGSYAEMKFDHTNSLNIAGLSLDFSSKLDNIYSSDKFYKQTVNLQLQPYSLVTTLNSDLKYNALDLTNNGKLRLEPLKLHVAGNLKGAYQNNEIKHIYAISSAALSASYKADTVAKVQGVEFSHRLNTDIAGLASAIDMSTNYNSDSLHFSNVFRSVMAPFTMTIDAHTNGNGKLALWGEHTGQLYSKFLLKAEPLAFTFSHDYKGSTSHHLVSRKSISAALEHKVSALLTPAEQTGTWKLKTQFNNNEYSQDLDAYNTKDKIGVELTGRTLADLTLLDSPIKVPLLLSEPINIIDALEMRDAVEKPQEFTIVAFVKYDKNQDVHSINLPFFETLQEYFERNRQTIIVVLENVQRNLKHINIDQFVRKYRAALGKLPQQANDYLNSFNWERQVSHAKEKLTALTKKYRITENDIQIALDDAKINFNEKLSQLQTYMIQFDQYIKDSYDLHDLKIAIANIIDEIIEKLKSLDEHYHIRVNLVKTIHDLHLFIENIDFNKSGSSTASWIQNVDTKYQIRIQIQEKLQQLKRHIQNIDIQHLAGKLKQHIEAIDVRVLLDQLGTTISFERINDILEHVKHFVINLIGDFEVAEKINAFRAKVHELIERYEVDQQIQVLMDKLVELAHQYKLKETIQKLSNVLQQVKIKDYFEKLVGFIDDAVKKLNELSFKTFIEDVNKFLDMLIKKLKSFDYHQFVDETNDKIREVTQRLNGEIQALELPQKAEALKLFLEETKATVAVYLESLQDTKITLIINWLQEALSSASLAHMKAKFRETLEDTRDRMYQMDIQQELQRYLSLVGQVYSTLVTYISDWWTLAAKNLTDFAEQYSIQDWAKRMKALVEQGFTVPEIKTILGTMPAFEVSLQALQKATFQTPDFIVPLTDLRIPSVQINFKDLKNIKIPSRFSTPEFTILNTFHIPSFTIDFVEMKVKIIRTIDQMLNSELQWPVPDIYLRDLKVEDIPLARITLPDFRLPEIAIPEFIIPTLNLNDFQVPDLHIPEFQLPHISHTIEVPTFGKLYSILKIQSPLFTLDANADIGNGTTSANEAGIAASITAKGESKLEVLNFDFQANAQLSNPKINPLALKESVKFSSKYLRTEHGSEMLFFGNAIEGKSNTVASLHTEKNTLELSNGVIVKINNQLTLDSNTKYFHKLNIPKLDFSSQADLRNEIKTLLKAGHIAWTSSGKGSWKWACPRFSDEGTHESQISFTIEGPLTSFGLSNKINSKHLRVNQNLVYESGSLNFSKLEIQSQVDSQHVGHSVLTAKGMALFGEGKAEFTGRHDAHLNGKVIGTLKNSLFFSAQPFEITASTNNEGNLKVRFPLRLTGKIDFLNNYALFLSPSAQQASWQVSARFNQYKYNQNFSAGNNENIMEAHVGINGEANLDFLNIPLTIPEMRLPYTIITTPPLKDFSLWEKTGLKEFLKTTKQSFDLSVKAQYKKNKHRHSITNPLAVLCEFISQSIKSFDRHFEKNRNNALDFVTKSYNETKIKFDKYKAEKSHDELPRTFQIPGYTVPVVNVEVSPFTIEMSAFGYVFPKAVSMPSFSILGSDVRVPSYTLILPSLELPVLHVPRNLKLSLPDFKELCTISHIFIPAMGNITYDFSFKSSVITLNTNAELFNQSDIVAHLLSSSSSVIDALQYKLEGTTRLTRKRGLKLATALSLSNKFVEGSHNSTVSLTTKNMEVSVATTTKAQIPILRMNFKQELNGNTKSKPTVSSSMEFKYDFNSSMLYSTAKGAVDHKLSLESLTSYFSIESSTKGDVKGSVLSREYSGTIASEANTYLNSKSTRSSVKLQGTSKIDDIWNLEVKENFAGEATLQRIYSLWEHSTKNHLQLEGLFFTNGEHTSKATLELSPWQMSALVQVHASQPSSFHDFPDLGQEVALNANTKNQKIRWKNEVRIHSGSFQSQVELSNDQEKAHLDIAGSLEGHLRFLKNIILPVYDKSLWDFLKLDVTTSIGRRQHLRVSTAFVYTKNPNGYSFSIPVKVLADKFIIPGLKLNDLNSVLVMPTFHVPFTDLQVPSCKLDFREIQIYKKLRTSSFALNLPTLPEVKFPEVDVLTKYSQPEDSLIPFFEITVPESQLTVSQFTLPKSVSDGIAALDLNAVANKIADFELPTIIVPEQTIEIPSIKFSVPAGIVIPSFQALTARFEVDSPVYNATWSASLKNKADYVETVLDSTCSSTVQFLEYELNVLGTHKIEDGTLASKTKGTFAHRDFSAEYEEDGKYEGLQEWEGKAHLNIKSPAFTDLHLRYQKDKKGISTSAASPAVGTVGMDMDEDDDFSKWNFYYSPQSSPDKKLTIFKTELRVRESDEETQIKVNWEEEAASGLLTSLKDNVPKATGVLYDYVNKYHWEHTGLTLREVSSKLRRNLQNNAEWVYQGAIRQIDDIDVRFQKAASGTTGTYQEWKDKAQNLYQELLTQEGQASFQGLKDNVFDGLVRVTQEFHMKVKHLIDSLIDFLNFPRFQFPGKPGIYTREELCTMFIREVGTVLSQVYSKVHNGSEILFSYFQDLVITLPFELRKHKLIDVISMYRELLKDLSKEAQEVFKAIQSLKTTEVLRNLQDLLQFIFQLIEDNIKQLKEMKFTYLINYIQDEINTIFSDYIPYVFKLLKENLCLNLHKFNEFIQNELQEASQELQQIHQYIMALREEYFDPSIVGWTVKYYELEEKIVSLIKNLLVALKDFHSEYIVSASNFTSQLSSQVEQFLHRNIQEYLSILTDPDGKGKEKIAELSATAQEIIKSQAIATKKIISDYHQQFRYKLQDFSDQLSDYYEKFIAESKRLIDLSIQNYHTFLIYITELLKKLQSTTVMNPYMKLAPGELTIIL
# T1 sequence (P04114 28-4563): as above
Structure (SMILES),CE/FC ratio decrease (%) [1] [%],inhibition at 10 µM (SMase-treated LDL) [%],inhibition at 10 µM (PLA2-treated LDL) [%]
"CC(=O)N[C@H](CO)C(=O)N[C@H](CCC(=O)O)C(=O)N[C@H](CC(=O)O)C(=O)N[C@H](CC(N)=O)C(=O)N[C@H](CCCCN)C(=O)N[C@H](CC(=O)O)C(=O)N[C@H](CCC(=O)O)C(=O)N[C@H](CCC(=O)O)C(=O)N[C@H](CC(N)=O)C(N)=O [Example 9, Ac-D-Ser-D-Glu-D-Asp-D-Asn-D-Lys-D-Asp-D-Glu-D-Glu-D-Asn-NH2] (Ac-[dS][dE][dD][dN][dK][dD][dE][dE][dN]-NH2)",58.8,91,36.4
"CC(=O)N[C@H](CC(N)=O)C(=O)N[C@H](CC(=O)O)C(=O)N[C@H](CO)C(=O)N[C@H](CCC(=O)O)C(=O)N[C@H](CC(=O)O)C(=O)N[C@H](CC(N)=O)C(=O)N[C@H](CO)C(=O)NC(CC(=O)O)C(=O)N[C@H](CCC(=O)O)C(=O)N[C@H](CCC(=O)O)C(=O)N[C@H](C)C(N)=O (stereo partly drawn) [Example 14, Ac-D-Asn-D-Asp-D-Ser-D-Glu-D-Asp-D-Asn-D-Ser-D-Asp-D-Glu-D-Glu-D-Ala-NH2] (Ac-[dN][dD][dS][dE][dD][dN][dS][ξD][dE][dE][dA]-NH2)",62.7,68.3,74
"CC(=O)N[C@H](CO)C(=O)N[C@H](CCC(=O)O)C(=O)N[C@H](CC(=O)O)C(=O)N[C@H](CC(N)=O)C(=O)N[C@H](CCCNC(=N)N)C(=O)N[C@H](CC(=O)O)C(=O)N[C@H](CCC(=O)O)C(=O)N[C@H](CCC(=O)O)C(=O)N[C@H](CCCNC(=N)N)C(N)=O [Example 6, Ac-D-Ser-D-Glu-D-Asp-D-Asn-D-Arg-D-Asp-D-Glu-D-Glu-D-Arg-NH2] (Ac-[dS][dE][dD][dN][dR][dD][dE][dE][dR]-NH2)",58.8,85,15.3
"CC(=O)N[C@H](CC(=O)O)C(=O)N[C@H](C)C(=O)N[C@H](CCC(=O)O)C(=O)N[C@H](CC(=O)O)C(=O)N[C@H](CC(N)=O)C(=O)N[C@H](C)C(=O)N[C@H](CC(=O)O)C(=O)N[C@H](CCC(=O)O)C(=O)N[C@H](CCC(=O)O)C(=O)N[C@H](C)C(N)=O [Example 17, Ac-D-Asp-D-Ala-D-Glu-D-Asp-D-Asn-D-Ala-D-Asp-D-Glu-D-Glu-D-Ala-NH2] (Ac-[dD][dA][dE][dD][dN][dA][dD][dE][dE][dA]-NH2)",67.4,95.2,66.1
"CC(=O)N[C@H](CC(N)=O)C(=O)N[C@H](CC(=O)O)C(=O)N[C@H](CO)C(=O)N[C@H](CCC(=O)O)C(=O)N[C@H](CC(=O)O)C(=O)N[C@H](CC(N)=O)C(=O)N[C@H](CO)C(=O)N[C@H](CC(=O)O)C(=O)N[C@H](CCC(=O)O)C(=O)N[C@H](CCC(=O)O)C(=O)N[C@H](CC(N)=O)C(N)=O [Example 11, Ac-D-Asn-D-Asp-D-Ser-D-Glu-D-Asp-D-Asn-D-Ser-D-Asp-D-Glu-D-Glu-D-Asn-NH2] (Ac-[dN][dD][dS][dE][dD][dN][dS][dD][dE][dE][dN]-NH2)",76.5,94.8,95.2
"CC(=O)N[C@H](CC(=O)O)C(=O)N[C@H](CO)C(=O)N[C@H](CCC(=O)O)C(=O)N[C@H](CC(=O)O)C(=O)N[C@H](CC(N)=O)C(=O)N[C@H](C)C(=O)N[C@H](CC(=O)O)C(=O)N[C@H](CCC(=O)O)C(=O)N[C@H](CCC(=O)O)C(=O)N[C@H](C)C(N)=O [Example 16, Ac-D-Asp-D-Ser-D-Glu-D-Asp-D-Asn-D-Ala-D-Asp-D-Glu-D-Glu-D-Ala-NH2] (Ac-[dD][dS][dE][dD][dN][dA][dD][dE][dE][dA]-NH2)",69.5,94,61.9
"CC(=O)N[C@H](CO)C(=O)N[C@H](CCC(=O)O)C(=O)N[C@H](CC(=O)O)C(=O)N[C@H](CC(N)=O)C(=O)N[C@H](CO)C(=O)N[C@H](CC(=O)O)C(=O)N[C@H](CCC(=O)O)C(=O)N[C@H](CCC(=O)O)C(=O)N[C@H](CC(N)=O)C(N)=O [Example 2, Ac-D-Ser-D-Glu-D-Asp-D-Asn-D-Ser-D-Asp-D-Glu-D-Glu-D-Asn-NH2] (Ac-[dS][dE][dD][dN][dS][dD][dE][dE][dN]-NH2)",58.8,80.7,87.7
